The values that follow come from patent EP1801117A1, “Means and methods for regulating amino acid pools and/or transport” (Friesland Brands B.V., priority 2005, dated 2007).

This assay has as its target L. lactis MG1363 BcaP (CtrA), branched-chain amino acid permease (Lactococcus lactis subsp. cremoris, UniProt A2RHI9). Briefly: Competition experiment: inhibition of L-[14C]isoleucine uptake by unlabeled L-amino acids in whole cells overproducing BcaP. The assay is classed as cell-based. The settings on record: 10-fold excess of unlabeled L-amino acid; 250 µM unlabeled L-isoleucine (control); lactococcal cells overproducing BcaP; uptake after 1 min at 30°C; means of three measurements.

L. lactis MG1363 BcaP (CtrA), branched-chain amino acid permease, sequence (A2RHI9 whole entry): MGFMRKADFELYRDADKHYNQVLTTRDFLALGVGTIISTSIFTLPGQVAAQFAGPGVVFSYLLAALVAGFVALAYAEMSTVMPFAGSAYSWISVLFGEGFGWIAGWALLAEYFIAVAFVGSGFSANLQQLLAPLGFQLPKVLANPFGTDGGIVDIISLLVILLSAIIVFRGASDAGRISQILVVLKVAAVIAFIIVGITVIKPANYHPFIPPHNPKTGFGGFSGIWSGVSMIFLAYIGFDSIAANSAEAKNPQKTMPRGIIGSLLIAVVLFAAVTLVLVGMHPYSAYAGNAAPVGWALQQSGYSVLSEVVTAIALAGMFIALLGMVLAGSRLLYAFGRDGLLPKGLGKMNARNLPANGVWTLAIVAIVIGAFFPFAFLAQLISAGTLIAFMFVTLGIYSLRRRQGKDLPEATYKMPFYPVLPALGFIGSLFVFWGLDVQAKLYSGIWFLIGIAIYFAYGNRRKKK
Method: Amino acid transport assays. L. lactis MG1363 (pNGbcaP; pNZ9530), L. lactis MG1363 or L. lactis MGbcaP, the latter two harboring plasmids pNG8048 and pNZ9530, were grown at 30°C in 50 ml of ½GM17. At an OD600 of approximately 0.4, 1000^-1 volume of supernatant of the nisin-producing strain L. lactis NZ9700 (Kuipers et al, 1993) was added to the cultures to induce BcaP production. At an OD600 of approximately 1.0, cells were harvested by centrifugation at 6300 g and 4°C. Cell pellets were washed with 25 ml of ice-cold CDM, concentrated to an OD600 of 10.0 in CDM lacking amino acids and stored on ice until use. Cells were energized prior to transport assays by 5 min of incubation at 30°C in the presence of 0.5% glucose. Subsequently, 100 µl of cell suspension were mixed with 100 µL of CDM containing 40 µM of the unlabeled amino acid of interest and a final concentration of 1 µM of the same amino acid in a ^14C- or ^35S-labeled form (Amersham Biosciences). For competition experiments, a 10-fold excess of unlabeled amino acid was added. Mixtures were incubated at 30°C for various time intervals while stirring. The reactions were stopped by the addition of 2 ml of ice-cold 0.1 M LiCl, followed by filtration through 0.45 µm pore-size nitrocellulose filters (Schleicher & Schuell, GmbH, Dassel, Germany). Reaction tubes and filters were washed with another 2 mL of ice-cold 0.1 M LiCl. Subsequently, the filters were transferred to vials containing 2 ml of scintillation fluid (Packard BioScience, Groningen, the Netherlands) and radioactivity was determined using a Packard TriCarb 2000 CA liquid scintillation analyzer (Packard Instruments, Meriden, CT).

Regarding `CC(C)[C@H](N)C(=O)O` [valine], the “inhibition of isoleucine transport by BcaP (reduction of L-[14C]isoleucine uptake)” value was determined as 64%.

As to `CSCC[C@H](N)C(=O)O` [methionine], the “inhibition of isoleucine transport by BcaP (reduction of L-[14C]isoleucine uptake)” value is on record as 23%.

Regarding `CC(C)C[C@H](N)C(=O)O` [leucine], the “inhibition of isoleucine transport by BcaP (reduction of L-[14C]isoleucine uptake)” value is “about 80%”.

`CC[C@H](C)[C@H](N)C(=O)O` [isoleucine]: the “inhibition of isoleucine transport by BcaP (reduction of L-[14C]isoleucine uptake)” value was “about 80%”.
